Measured values: patent publication US10072001B2, “Tank-binding kinase inhibitor compounds” (Gilead Sciences, Inc., priority 2014, dated 2018)
One block for each compound: values may come before it.

How the values were obtained:
TBK1 = TBK1 (Homo sapiens (Human), UniProt Q9UHD2); assay: TR-FRET kinase assay, TBK1; conditions: read-out: TBK1-IC50; full length recombinant TBK1 2.5 nM, 2x Km ATP, 1 μM peptide, 240 min at 25° C.; geometric mean of minimum four determinations
TBK1, sequence (Q9UHD2 whole entry): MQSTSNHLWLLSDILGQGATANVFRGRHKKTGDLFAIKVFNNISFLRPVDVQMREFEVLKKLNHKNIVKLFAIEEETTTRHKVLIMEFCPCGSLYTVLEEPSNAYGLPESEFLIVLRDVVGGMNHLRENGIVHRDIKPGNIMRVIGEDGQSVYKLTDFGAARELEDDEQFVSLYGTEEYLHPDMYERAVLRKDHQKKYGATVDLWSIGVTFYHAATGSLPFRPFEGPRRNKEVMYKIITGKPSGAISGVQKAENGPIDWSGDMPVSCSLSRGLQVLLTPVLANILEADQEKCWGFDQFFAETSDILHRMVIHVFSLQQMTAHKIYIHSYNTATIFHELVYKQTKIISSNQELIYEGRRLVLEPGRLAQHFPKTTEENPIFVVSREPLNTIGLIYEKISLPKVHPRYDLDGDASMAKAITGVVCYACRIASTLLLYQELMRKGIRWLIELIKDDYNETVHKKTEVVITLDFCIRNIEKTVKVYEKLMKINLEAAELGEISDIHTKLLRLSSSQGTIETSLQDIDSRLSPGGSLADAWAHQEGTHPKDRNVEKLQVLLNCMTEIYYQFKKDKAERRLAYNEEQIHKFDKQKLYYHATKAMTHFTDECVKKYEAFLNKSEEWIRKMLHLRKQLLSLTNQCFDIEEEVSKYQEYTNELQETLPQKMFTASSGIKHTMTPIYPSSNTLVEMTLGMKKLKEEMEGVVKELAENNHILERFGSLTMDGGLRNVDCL

IKKε = IKKε (Homo sapiens (Human), UniProt Q14164); assay: TR-FRET kinase assay, IKKε; assay type: biochemical; conditions: full length recombinant IKKε 0.3 nM, 2x Km ATP, 1 μM peptide, 240 min at 25° C.; geometric mean of minimum four determinations
IKKε, sequence (Q14164 whole entry): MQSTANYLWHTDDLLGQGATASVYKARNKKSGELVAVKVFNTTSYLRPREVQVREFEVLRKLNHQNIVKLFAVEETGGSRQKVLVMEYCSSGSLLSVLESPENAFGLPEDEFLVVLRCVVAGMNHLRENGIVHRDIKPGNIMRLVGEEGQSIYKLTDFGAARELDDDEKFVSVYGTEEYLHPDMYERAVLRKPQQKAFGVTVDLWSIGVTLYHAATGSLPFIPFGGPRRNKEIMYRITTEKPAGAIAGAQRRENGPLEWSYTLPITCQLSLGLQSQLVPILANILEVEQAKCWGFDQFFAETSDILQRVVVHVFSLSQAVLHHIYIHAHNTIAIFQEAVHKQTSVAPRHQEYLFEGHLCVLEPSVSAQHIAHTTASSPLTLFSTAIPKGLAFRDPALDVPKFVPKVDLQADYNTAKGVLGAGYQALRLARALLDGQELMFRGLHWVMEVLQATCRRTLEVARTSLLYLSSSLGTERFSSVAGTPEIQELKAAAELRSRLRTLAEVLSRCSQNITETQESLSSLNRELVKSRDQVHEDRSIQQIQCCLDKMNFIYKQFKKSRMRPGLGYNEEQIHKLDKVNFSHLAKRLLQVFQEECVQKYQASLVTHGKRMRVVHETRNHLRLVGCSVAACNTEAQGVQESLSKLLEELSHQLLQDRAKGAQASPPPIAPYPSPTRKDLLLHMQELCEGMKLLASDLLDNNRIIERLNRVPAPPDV
Source text: Biological Assay for TBK1 and IKKs:

SMILES: N#Cc1cc(-c2ccnc3[nH]c(-c4ccc(N5CCOCC5)cc4)cc23)ccc1OCC1CC1 [Example 80, 2-(cyclopropylmethoxy)-5-(2-(4-morpholinophenyl)-1H-pyrrolo[2,3-b]pyridin-4-yl)benzonitrile]
- IC50 (TBK1): 16.8 nM
- IC50 (IKKε): > 1000 nM

SMILES: CC(C)(C)OC(=O)N1CC=C(c2cc3c(-c4ccc(OC5CCOCC5)c(C#N)c4)ccnc3[nH]2)C1 [Example 36, tert-butyl 3-(4-(3-cyano-4-((tetrahydro-2H-pyran-4-yl)oxy)phenyl)-1H-pyrrolo[2,3-b]pyridin-2-yl)-2,5-dihydro-1H-pyrrole-1-carboxylate]
- IC50 (TBK1): 38.4 nM
- IC50 (IKKε): 79 nM

SMILES: CNC(=O)c1ccc(-c2cc3c(-c4ccc(OC5CCOCC5)c(C#N)c4)ccnc3[nH]2)cc1 [Example 41, 4-(4-(3-cyano-4-((tetrahydro-2H-pyran-4-yl)oxy)phenyl)-1H-pyrrolo[2,3-b]pyridin-2-yl)-N-methylbenzamide]
- IC50 (TBK1): 3.08 nM
- IC50 (IKKε): 5.59 nM

SMILES: Cn1cc(-c2cc3c(-c4ccc(OC5CCOCC5)c(C#N)c4)ccnc3[nH]2)cn1 [Example 84, 5-(2-(1-methyl-1H-pyrazol-4-yl)-1H-pyrrolo[2,3-b]pyridin-4-yl)-2-((tetrahydro-2H-pyran-4-yl)oxy)benzonitrile]
- IC50 (TBK1): 3.68 nM
- IC50 (IKKε): 4.71 nM

SMILES: N#Cc1cc(-c2ccnc3[nH]c(-c4ccc(N5CCOCC5)cc4)cc23)ccc1O[C@@H]1CCN(CC(F)F)C1 [Example 31, (R)-2-((1-(2,2-difluoroethyl)pyrrolidin-3-yl)oxy)-5-(2-(4-morpholinophenyl)-1H-pyrrolo[2,3-b]pyridin-4-yl)benzonitrile]
- IC50 (TBK1): 19.1 nM
- IC50 (IKKε): 59.2 nM

SMILES: CC(C)(C)n1cc(-c2cc3c(-c4ccc(OC5CCOCC5)c(C#N)c4)ccnc3[nH]2)cn1 [Example 53, 5-(2-(1-(tert-butyl)-1H-pyrazol-4-yl)-1H-pyrrolo[2,3-b]pyridin-4-yl)-2-((tetrahydro-2H-pyran-4-yl)oxy)benzonitrile]
- IC50 (TBK1): 9.4 nM
- IC50 (IKKε): 13.7 nM

SMILES: N#Cc1cc(-c2ccnc3[nH]c(-c4ccc(N5CC6(COC6)C5)cc4)cc23)ccc1OC1CCOCC1 [Example 46, 5-(2-(4-(2-oxa-6-azaspiro[3.3]heptan-6-yl)phenyl)-1H-pyrrolo[2,3-b]pyridin-4-yl)-2-((tetrahydro-2H-pyran-4-yl)oxy)benzonitrile]
- IC50 (IKKε): 13 nM

SMILES: N#Cc1cc(-c2ccnc3[nH]c(C#CC4CCOCC4)cc23)ccc1OC1CCOCC1 [Example 35, 5-(2-((tetrahydro-2H-pyran-4-yl)ethynyl)-1H-pyrrolo[2,3-b]pyridin-4-yl)-2-((tetrahydro-2H-pyran-4-yl)oxy)benzonitrile]
- IC50 (TBK1): 52.8 nM

SMILES: N#CCC(=O)N1CCN(c2ccc(-c3cc4c(-c5ccc(OC6CCOCC6)c(C#N)c5)ccnc4[nH]3)cc2)CC1 [Example 57, 5-(2-(4-(4-(2-cyanoacetyl)piperazin-1-yl)phenyl)-1H-pyrrolo[2,3-b]pyridin-4-yl)-2-((tetrahydro-2H-pyran-4-yl)oxy)benzonitrile]
- IC50 (IKKε): 2.98 nM

Second part, the compound after the results:

- IC50 (TBK1): 1000 nM
- IC50 (IKKε): 291 nM
SMILES: CN1CCN(C(=O)c2cc3c(-c4ccc(OC5CCOCC5)c(C#N)c4)ccnc3[nH]2)CC1 [Example 118, 5-(2-(4-methylpiperazine-1-carbonyl)-1H-pyrrolo[2,3-b]pyridin-4-yl)-2-((tetrahydro-2H-pyran-4-yl)oxy)benzonitrile]

- IC50 (TBK1): 1.69 nM
- IC50 (IKKε): 8.46 nM
SMILES: CC1(C)C(=O)Nc2cc(-c3cc4c(-c5ccc(OC6CCOCC6)c(C#N)c5)ncnc4[nH]3)ccc21 [Example 188, 5-(6-(3,3-dimethyl-2-oxoindolin-6-yl)-7H-pyrrolo[2,3-d]pyrimidin-4-yl)-2-((tetrahydro-2H-pyran-4-yl)oxy)benzonitrile]

- IC50 (TBK1): 3.33 nM
- IC50 (IKKε): 1000 nM
SMILES: N#Cc1cc(-c2ncnc3[nH]c(-c4ccc(N5CCOCC5)c(F)c4)nc23)ccc1OC1CCOCC1 [Example 242, 5-(8-(3-fluoro-4-morpholinophenyl)-9H-purin-6-yl)-2-((tetrahydro-2H-pyran-4-yl)oxy)benzonitrile]

- IC50 (TBK1): 2.63 nM
- IC50 (IKKε): 18.9 nM
SMILES: N#Cc1cc(-c2ncnc3[nH]c(-c4cccc(N5CCOCC5)c4)cc23)ccc1OC1CCOCC1 [Example 103, 5-(6-(3-morpholinophenyl)-7H-pyrrolo[2,3-d]pyrimidin-4-yl)-2-((tetrahydro-2H-pyran-4-yl)oxy)benzonitrile]

- IC50 (TBK1): 19.3 nM
- IC50 (IKKε): 34.7 nM
SMILES: N#Cc1cc(-c2ccnc3[nH]c(-c4cc[nH]c(=O)c4)cc23)ccc1OC1CCOCC1 [Example 217, 5-(2-(2-oxo-1,2-dihydropyridin-4-yl)-1H-pyrrolo[2,3-b]pyridin-4-yl)-2-((tetrahydro-2H-pyran-4-yl)oxy)benzonitrile]

- IC50 (TBK1): 4.39 nM
SMILES: N#Cc1cc(-c2ncnc3[nH]c(-c4ccc(N5CCOCC5)nc4)cc23)ccc1OC1CCOCC1 [Example 155, 5-(6-(6-morpholinopyridin-3-yl)-7H-pyrrolo[2,3-d]pyrimidin-4-yl)-2-((tetrahydro-2H-pyran-4-yl)oxy)benzonitrile]

- IC50 (IKKε): 1000 nM
SMILES: COC(=O)c1ccc(-c2cc3c(-c4ccc(OC5CCOCC5)c(C#N)c4)ccnc3[nH]2)cc1 [Example 238, Methyl 4-(4-(3-cyano-4-((tetrahydro-2H-pyran-4-yl)oxy)phenyl)-1H-pyrrolo[2,3-b]pyridin-2-yl)benzoate]

- IC50 (TBK1): 52.8 nM
SMILES: Cc1ncc(-c2nc3c(-c4ccc(OC5CCOCC5)c(C#N)c4)ncnc3[nH]2)s1 [Example 231, 5-(8-(2-methylthiazol-5-yl)-9H-purin-6-yl)-2-((tetrahydro-2H-pyran-4-yl)oxy)benzonitrile]

- IC50 (IKKε): 2230 nM
SMILES: N#Cc1cc(-c2ncnc3[nH]ccc23)ccc1OC1CCOCC1 [Example 108, 5-(7H-pyrrolo[2,3-d]pyrimidin-4-yl)-2-((tetrahydro-2H-pyran-4-yl)oxy)benzonitrile]

- IC50 (TBK1): 3.26 nM
SMILES: CC(C)(O)c1ccc(-c2cc3c(-c4ccc(OC5CCN(C(=O)CO)CC5)c(C#N)c4)ncnc3[nH]2)cn1 [Example 132, 2-((1-(2-hydroxyacetyl)piperidin-4-yl)oxy)-5-(6-(6-(2-hydroxypropan-2-yl)pyridin-3-yl)-7H-pyrrolo[2,3-d]pyrimidin-4-yl)benzonitrile]

- IC50 (TBK1): 1 nM
SMILES: COc1cc(-c2cc3c(-c4ccc(OC5CCOCC5)c(C#N)c4)ncnc3[nH]2)ccc1N1CCOCC1 [Example 136, 5-(6-(3-methoxy-4-morpholinophenyl)-7H-pyrrolo[2,3-d]pyrimidin-4-yl)-2-((tetrahydro-2H-pyran-4-yl)oxy)benzonitrile]

- IC50 (TBK1): 0.91 nM
SMILES: N#Cc1cc(-c2ncnc3[nH]c(-c4ccc(N5CCN(CC(F)F)CC5)cc4)cc23)ccc1OC1CCN(C(=O)CO)CC1 [Example 264, 5-(6-(4-(4-(2,2-difluoroethyl)piperazin-1-yl)phenyl)-7H-pyrrolo[2,3-d]pyrimidin-4-yl)-2-((1-(2-hydroxyacetyl)piperidin-4-yl)oxy)benzonitrile]

- IC50 (IKKε): 5.84 nM
SMILES: N#Cc1cc(-c2ncnc3[nH]c(C4=CCC5(CC4)OCCO5)cc23)ccc1OC1CCN(C(=O)CO)CC1 [Example 175, 5-(6-(1,4-dioxaspiro[4.5]dec-7-en-8-yl)-7H-pyrrolo[2,3-d]pyrimidin-4-yl)-2-((1-(2-hydroxyacetyl)piperidin-4-yl)oxy)benzonitrile]

- IC50 (TBK1): 2.84 nM
SMILES: N#Cc1cc(-c2cc3c(-c4ccc(OC5CCOCC5)c(C#N)c4)ncnc3[nH]2)ccc1OC1CCOCC1 [Example 223, 5,5′-(7H-pyrrolo[2,3-d]pyrimidine-4,6-diyl)bis(2-((tetrahydro-2H-pyran-4-yl)oxy)benzonitrile)]
